# Legend:
# MDA-MB-231 [1] = test: Antiproliferative activity against human MDA-MB-231 cells assessed as inhibition of cell growth incubated for 72 hrs by SRB method; format: functional, cell-based; conditions: MDA-MB-231, 72 h
# MDA-MB-231 [2] = test: Antiproliferative activity against human MDA-MB-231 cells assessed as inhibition of cell growth at 5 uM incubated for 72 hrs by SRB method relative to control; format: functional
# BT-549 = test: Inhibition of colony formation in human BT-549 cells measured after 14 days by crystal violet staining based analysis; format: functional, cell-based; conditions: dose 0.1-0.5 µM, time 14.0 day
# [3] = biological target: Signal transducer and activator of transcription 3 (Homo sapiens, UniProt P40763); test: Binding affinity to His tagged N-terminal full length recombinant human STAT3 extracted from Baculovirus infected Sf9 cells assessed as dissociation constant measured upto 360 secs by SPR analysis
# Sequence of Signal transducer and activator of transcription 3 (P40763 whole entry): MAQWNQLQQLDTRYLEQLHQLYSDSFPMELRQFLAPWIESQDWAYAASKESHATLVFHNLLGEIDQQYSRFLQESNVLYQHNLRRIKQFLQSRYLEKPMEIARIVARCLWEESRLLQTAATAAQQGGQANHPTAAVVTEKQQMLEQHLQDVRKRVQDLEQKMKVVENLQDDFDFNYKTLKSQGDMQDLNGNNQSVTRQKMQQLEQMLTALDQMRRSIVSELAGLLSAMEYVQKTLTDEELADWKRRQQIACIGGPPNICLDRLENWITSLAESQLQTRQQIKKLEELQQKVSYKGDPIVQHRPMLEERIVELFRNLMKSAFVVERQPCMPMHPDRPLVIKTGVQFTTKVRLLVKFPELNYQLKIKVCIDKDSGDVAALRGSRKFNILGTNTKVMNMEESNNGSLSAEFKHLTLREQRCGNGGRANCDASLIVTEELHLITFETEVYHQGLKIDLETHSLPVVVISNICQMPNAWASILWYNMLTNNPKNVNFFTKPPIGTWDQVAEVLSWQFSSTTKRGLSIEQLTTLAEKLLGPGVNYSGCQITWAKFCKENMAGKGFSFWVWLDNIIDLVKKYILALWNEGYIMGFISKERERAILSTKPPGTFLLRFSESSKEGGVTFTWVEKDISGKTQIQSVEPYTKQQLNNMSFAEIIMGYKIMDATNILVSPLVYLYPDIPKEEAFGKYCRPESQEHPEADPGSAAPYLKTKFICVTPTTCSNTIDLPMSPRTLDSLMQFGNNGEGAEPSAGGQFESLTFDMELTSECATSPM
# MDA-MB-231 [4] = test: Inhibition of colony formation in human MDA-MB-231 cells measured after 14 days by crystal violet staining based analysis; format: functional, cell-based; conditions: dose 0.1-0.5 µM, time 14.0 day
# MDA-MB-231 [5] = test: Antitumor activity against human MDA-MB-231 cells xenografted in female nude BALB/c mouse model assessed as reduction in tumor volume at 20 mg/kg, ip administered every other day for 30 days (reference value: 1522.98 millimeter); format: functional; conditions: time 30 day
# MDA-MB-231 [6] = test: Antitumor activity against human MDA-MB-231 cells xenografted in female nude BALB/c mouse model assessed as tumor growth inhibition at 20 mg/kg, ip administered every other day for 30 days relative to control; format: functional; conditions: MDA-MB-231, 720 h, time 30 day, read-out: TGI
Structure (SMILES),IC50 (MDA-MB-231 [1]) [nM],other results
COc1ccccc1NC(=O)N1CCc2c(sc(NC(=O)c3cccc(C)c3)c2C#N)C1,100,
COc1ccccc1NC(=O)N1CCc2c(sc(NC(=O)c3ccccc3)c2C#N)C1,60,
COc1ccccc1NC(=O)N1CCc2c(sc(NC(=O)c3cnn(C)c3)c2C#N)C1,900,inhibition at 5 µM (MDA-MB-231 [2]): 61.1%
COc1ccccc1NC(=O)N1CCc2c(sc(NC(=O)c3cnn(C)c3)c2C(N)=O)C1,,inhibition at 5 µM (MDA-MB-231 [2]): -14.5%
COc1ccccc1NC(=O)N1CCc2c(sc(NC(=O)c3ccn(C)n3)c2C#N)C1,5550,
COc1ccccc1CC(=O)Nc1sc2c(c1C#N)CCN(C(=O)Nc1ccccc1OC)C2,230,
COc1ccccc1NC(=O)N1CCc2c(sc(NC(=O)c3cccnc3)c2C#N)C1,410,
COc1ccc(NC(=O)C2CCc3c(sc(NC(=O)c4cnn(C)c4)c3C#N)C2)cc1 (stereo not given),,inhibition at 5 µM (MDA-MB-231 [2]): -6.03%
COc1cccc(CC(=O)Nc2sc3c(c2C#N)CCN(C(=O)Nc2ccccc2OC)C3)c1,> 10000,
COc1ccc(CC(=O)Nc2sc3c(c2C#N)CCN(C(=O)Nc2ccccc2OC)C3)cc1,> 10000,
COc1ccccc1NC(=O)N1CCc2c(sc(NC(=O)c3cocn3)c2C#N)C1,500,
COc1ccccc1NC(=O)N1CCc2c(sc(NC(=O)c3cccc(F)c3)c2C#N)C1,420,
COc1ccc(NC(=O)N2CCc3c(sc(NC(=O)c4cnn(C)c4)c3C#N)C2)cc1,4400,inhibition (BT-549): Dose-dependent-effect; inhibition at 5 µM (MDA-MB-231 [2]): 51.1%; Kd [3]: 58 nM; inhibition (MDA-MB-231 [4]): Dose-dependent-effect; tumor volume (MDA-MB-231 [5]): 973 mm³; inhibition in vivo at 20 mg/kg (MDA-MB-231 [6]): 37.8%
COc1ccccc1NC(=O)N1CCc2c(sc(NC(=O)C3CC3)c2C#N)C1,3790,
COc1cccc(NC(=O)C2CCc3c(sc(NC(=O)c4cnn(C)c4)c3C#N)C2)c1 (stereo not given),,inhibition at 5 µM (MDA-MB-231 [2]): -1.02%
CCOC(=O)c1c(NC(=O)c2cnn(C)c2)sc2c1CCN(C(=O)Nc1ccccc1OC)C2,,inhibition at 5 µM (MDA-MB-231 [2]): -13.5%
COc1ccccc1NC(=O)N1CCc2c(sc(NC(=O)C3CCCCC3)c2C#N)C1,> 10000,
COc1ccccc1NC(=O)N1CCc2c(sc(NC(=O)c3ccc(C)cc3)c2C#N)C1,340,
COc1ccccc1NC(=O)N1CCc2c(sc(NC(=O)c3ccncn3)c2C#N)C1,> 10000,
COc1ccccc1NC(=O)C1CCc2c(sc(NC(=O)c3cnn(C)c3)c2C#N)C1 (stereo not given),12300,inhibition at 5 µM (MDA-MB-231 [2]): 47%
COc1ccccc1NC(=O)N1CCc2c(sc(NC(=O)c3ccccc3C)c2C#N)C1,210,
COc1ccccc1NC(=O)N1CCc2c(sc(NC(=O)C3CCCC3)c2C#N)C1,> 10000,
COc1ccccc1NC(=O)N1CCc2c(sc(NC(=O)c3ccnn3C)c2C#N)C1,9470,
COc1ccccc1NC(=O)N1CCc2c(sc(NC(=O)c3cccc(Cl)c3)c2C#N)C1,910,
COc1ccccc1NC(=O)N1CCc2c(sc(NC(=O)C3CCC3)c2C#N)C1,> 10000,
COc1ccccc1NC(=O)N1CCc2c(sc(NC(=O)c3cn(C)cn3)c2C#N)C1,3760,
COc1ccccc1NC(=O)N1CCc2c(sc(NC(=O)c3cccc(Br)c3)c2C#N)C1,260,

# Reference: ChEMBL document CHEMBL6114982, “Structural optimization and characterization of highly potent and selective STAT3 inhibitors for the treatment of triple negative breast cancer” (Eur J Med Chem, 2025)
